Source: publication PMC3261875 (PLoS ONE, 2012)

Biological target: T1, human heme oxygenase-2 (hHO-2) (Homo sapiens, UniProt P30519)
T1 construct: gene HMOX2; truncation derivative, 1–264 amino acids with an N-terminal His-tag
T1 sequence (P30519 1-264): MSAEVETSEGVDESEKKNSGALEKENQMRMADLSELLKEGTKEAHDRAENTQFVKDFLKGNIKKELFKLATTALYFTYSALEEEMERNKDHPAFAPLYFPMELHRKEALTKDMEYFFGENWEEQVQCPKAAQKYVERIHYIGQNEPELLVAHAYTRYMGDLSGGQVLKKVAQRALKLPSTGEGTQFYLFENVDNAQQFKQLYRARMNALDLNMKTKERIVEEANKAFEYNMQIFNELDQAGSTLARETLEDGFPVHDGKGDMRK
Assay: spectral (Soret) binding and heme degradation assay on purified protein

With `O=C(CC(c1ccccc1)c1ccccc1)Cn1ccnc1` [QC-308, 1-(1H-imidazol-1-yl)-4,4-diphenyl-2-butanone] as the compound, how does the “spectral (Soret) binding and heme degradation assay on purified protein” value read?
The value was “the spectral changes upon addition of QC-308 were similar to those seen for hHO-1”.
